Measured values from US11414385B2, “Compounds and methods for treating, detecting, and identifying compounds to treat apicomplexan parasitic diseases” (The University of Chicago, priority 2015, dated 2022).
Like-named read-outs stand apart in the source and are kept apart here. One block for each compound: values may come before it.

Key:
[1] = system: T. gondii tachyzoites (RH-YFP strain); assay: In vitro challenge assay for Toxoplasma tachyzoites (RH-YFP in HFF, fluorescence); type: cell-based, Toxoplasma gondii; conditions: Toxoplasma gondii; RH-YFP; read-out: Tachy IC50
Experimental: Human foreskin fibroblasts (HFF) were cultured on a flat, clear-bottomed, black 96-well plate to 90% to 100% confluence. IMDM (1×, [+] glutamine, [+] 25 mM HEPES, [+] Phenol red, 10% FBS [gibco, Denmark]) was removed from each well and replaced with IMDM-C (1×, [+] glutamine, [+] 25 mM HEPES, [−] Phenol red, 10% FBS)[Gibco, Denmark]). Type I RH parasites expressing Yellow Fluorescent Protein (RH-YFP) were lysed from host cells by double passage through a 27-gauge needle. Parasites were counted and diluted to 32,000/mL in IMDM-C. Fibroblast cultures were infected with 3200 tachyzoites of the Type I RH-YFP strain and returned to incubator at 37° C. for 1-2 hours to allow for infection. Diluted solutions of the compounds were made using IMDM-C, and 20 μl were added to each designated well, with triplicates for each condition. Controls included pyrimethamine/sulfadiazine (current standard of treatment), DMSO only, fibroblast only, and an untreated YFP gradient with 2 fold dilutions of the parasite. Cells were incubated at 37° C. for 72 hours. The plates were read using a fluorimeter (Synergy H4 Hybrid Reader, BioTek) To ascertain the amount of yellow fluorescent protein, in relative fluorescence units (RFU), as a measure of parasite burden after treatment. Compounds were not considered effective or pursued for further analysis if there were no signs of inhibition at 1 μM. Data was collected using Gen5 software and analyzed with Excel.
Protocol adapted from Fomovska, et. al. (18,19). Human foreskin fibroblasts (HFF) were cultured on a flat, clear-bottomed, black 96-well plate to 90% to 100% confluence. IMDM (1×, [+] glutamine, [+] 25 mM HEPES, [+] Phenol red, 10% FBS [gibco, Denmark]) was removed from each well and replaced with IMDM-C (1×, [+] glutamine, [+] 25 mM HEPES, [−] Phenol red, 10% FBS)[gibco, Denmark]). Type I RH parasites expressing Yellow Fluorescent Protein (RH-YFP) were lysed from host cells by double passage through a 27-gauge needle. Parasites were counted and diluted to 32,000/mL in IMDM-C. Fibroblast cultures were infected with 3200 tachyzoites of the Type I RH strain expressing Yellow Fluorescent Protein (RH-YFP) and returned to incubator at 37° C. for 1-2 hours to allow for infection (15). Various concentrations of the compounds were made using IMDM-C, and 20 μl were added to each designated well, with triplicates for each condition. Controls included pyrimethamine/sulfadiazine (current standard of treatment), 0.1% DMSO only, fibroblast only, and an untreated YFP gradient with 2 fold dilutions of the parasite. Cells were incubated at 37° C. for 72 hours. Plates were read using a fluorimeter (Synergy H4 Hybrid Reader, BioTek) to ascertain the amount of yellow fluorescent protein, in relative fluorescence units (RFU), as a measure of parasite burden after treatment. Data was collected using Gen5 software. IC50 was calculated by graphical analysis in Excel.
An initial screening assay of 10 μM, 1 μM, 100 nM, and 10 nM was performed. Compounds were not considered effective or pursued for further analysis if there were no signs of inhibition of tachyzoites at 1 μM. If compounds did appear to be effective at 1 μM, another experiment was conducted to assess effect at 1 μM, 500 nM, 250 nM, 125 nM, 62.5 nM, and 31.25 nM.
Protocol adapted from Fomovska, et. al. (Fomovska A, Huang Q, El Bissati K, Mui E J, Witola W H, Cheng G, et al. Novel N-Benzoyl-2-Hydroxybenzamide Disrupts Unique Parasite Secretory Pathway. Antimicrob Agents Chemother [Internet]. 2012 May [cited 2015 Jul. 8]; 56(5):2666-82; Fomovska A, Wood R D, Mui E, Dubey J P, Ferreira L R, Hickman M R, et al. Salicylanilide inhibitors of Toxoplasma gondii. J Med Chem. 2012 Oct. 11; 55(19):8375-91.). Human foreskin fibroblasts (HFF) were cultured on a flat, clear-bottomed, black 96-well plate to 90% to 100% confluence. […]

[2] = system: P. falciparum strains D6, TM91-C235, W2, C2B; assay: Malaria SYBR Green I-Based Fluorescence (MSF) Assay; type: cell-based, Plasmodium falciparum
Experimental: Testing of P. falciparum: D6 is a drug sensitive strain from Sierra Leone, C235 is a multi-drug resistant strain from Thailand, W2 is a chloroquine resistant strain from Thailand, and C2B has resistance to a variety of drugs including atovaquone.
D6 is a drug sensitive strain from Sierra Leone, C235 is a multi-drug resistant strain from Thailand, W2 is a chloroquine resistant strain from Thailand, and C2B has resistance to a variety of drugs including atovaquone. These assays were performed as described.
(§1) Compound activity against P. falciparum, a causative agent of malaria, was tested using the Malaria SYBR Green I—Based Fluorescence (MSF) Assay. This; microtiter plate drug sensitivity assay uses the presence of malarial DNA as a measure of parasitic proliferation in the presence of antimalarial drugs or experimental compounds based on modifications of previously described methods by Plouffe et al (20) and Johnson et al. As the intercalation of SYBR Green I dye and its resulting fluorescence is relative to parasite growth, a test compound that inhibits the growth of the parasite will result in a lower fluorescence.
Selected compounds were examined for activity against four strains of P. falciparum: D6 (CDC/Sierra Leone), a drug-sensitive strain readily killed by chloroquine, TM91-C235, a multi-drug resistant strain resistant to chloroquine, W2, a chloroquine resistant strain from Thailand, and C2B has resistance to a variety of drugs including atovaquone.
D6 is a drug sensitive strain from Sierra Leone, C235 is a multi-drug resistant strain from Thailand, W2 is a chloroquine resistant strain from Thailand, and C2B has resistance to a variety of drugs including atovaquone. These assays were performed using standard protocols.
as §1, with “known in the art.” for “by Plouffe et al (20) and Johnson et al.”, “fluorescence. Selected compounds were examined for activity against four strains of P. falciparum: D6 (CDC/Sierra Leone), a drugsensitive strain readily killed by chloroquine, TM91-C235, a multi-drug resistant strain resistant to chloroquine, W2, a chloroquine resistant strain from Thailand, and C2B has resistance to a variety of drugs including atovaquone.” for “fluorescence.”

[3] = Plasmodium falciparum, C2B strain, read-out: SYBR Green C2B IC50
[4] = Plasmodium falciparum, D6 strain, read-out: SYBR Green D6 IC50
[5] = Plasmodium falciparum, TM91C235 strain, read-out: SYBR Green C235 IC50
[6] = Plasmodium falciparum, W2 strain, read-out: SYBR Green W2 IC50
[7] = Plasmodium falciparum, D6 strain, read-out: Pf D6 IC50

Structure (SMILES): Cc1[nH]c2c(c(=O)c1-c1ccc(Oc3cccc(F)c3)cc1)CCCC2 [JAG069, 3-(4-(3-Fluorophenoxy)phenyl)-2-methyl-5,6,7,8-tetrahydroquinolin-4(1H)-one]
IC50 [1]: 20 nM

Structure (SMILES): Cc1[nH]c2c(c(=O)c1-c1ccc(Oc3ccc(OC(F)(F)F)cc3)cc1)CC(C)CC2 (centres unmarked) [JAG106, 3(4-(4-Trifluoromethoxyphenoxy)phenyl)-2,6-dimethyl-5,6,7,8-tetrahydroquinolin-4(1H)-one]
IC50 [1]: ~1000 nM

IC50 ([2]; D6 strain, read-out: SYBR Green D6 IC50): 2880 nM
IC50 [2, 3]: > 20000 nM
IC50 [2, 4]: 2840 nM
IC50 [2, 5]: 13700 nM
IC50 [2, 6]: 9240 nM
Structure (SMILES): Cc1[nH]c2ccccc2c(=O)c1-c1ccc(Oc2ccc(Cl)cc2)c(O)c1 [RG38, 3-(4-(4-chlorophenoxy)-3-hydroxyphenyl)-2-methylquinolin-4(1H)-one]

Structure (SMILES): Cc1[nH]c2c(c(=O)c1-c1ccc(Oc3ccc4c(c3)OCO4)cc1)CCCC2 [AS032, 3-[4-(2H-1,3-benzodioxo1-5-yloxy)phenyl]-2-methyl-5,6,7,8-tetrahydro-1H-quinolin-4-one]
IC50 [1]: 100 to 300 nM

Structure (SMILES): Cc1[nH]c2cnccc2c(=O)c1-c1ccc(Oc2ccc(OC(F)(F)F)cc2)cc1 [JAG129, 3(4-(4-trifluoromethoxyphenoxy)phenyl)-2-methyl-1,7-napthyrid-4(1H)-one]
IC50 [1]: 100 nM

Structure (SMILES): Cc1[nH]c2c(c(=O)c1-c1ccc(Oc3ccc(C(F)(F)F)cc3)cc1)CCCC2 [JAG63, 2-methyl-3-(4-(4-(trifluoromethyl)phenoxy)phenyl)-5,6,7,8-tetrahydroquinolin-4(1H)-one]
IC50 [1]: 100 to 300 nM

Structure (SMILES): Cc1c(-c2ccc(Oc3ccc(OC(F)(F)F)cc3)cc2)c(=O)c2c(n1C)CCCC2 [JAG023, 1,2-dimethyl-3-(4-(4-(trifluoromethoxy)phenoxy)phenyl)-5,6,7,8-tetrahydroquinolin-4(1H)-one]
IC50 [1]: 1000 nM

IC50 [2, 7]: 3750 nM
Structure (SMILES): Cc1[nH]c2c(c(=O)c1-c1ccc(Oc3cccc(C(=O)O)c3)cc1)CCCC2 [JAG047, 3-(4-(2-methyl-4-oxo-1,4,5,6,7,8-hexahydroquinolin-3-yl)phenoxy)benzoic acid]

Structure (SMILES): Cc1[nH]c2c(c(=O)c1-c1ccc(Oc3ccc(Cl)c(Cl)c3)cc1)CCCC2 [JAG084, 3-(4-(3,4-Dichlorophenoxy)phenyl)-2-methyl-5,6,7,8-tetrahydroquinolin-4(1H)-one]
IC50 [1]: 40 to 80 nM

Structure (SMILES): Cc1[nH]c2c(c(=O)c1-c1ccc(Oc3ccc(F)cc3)cc1)CCCC2 [JAG58, 3-(4-(4-fluorophenoxy)phenyl)-2-methyl-5,6,7,8-tetrahydroquinolin-4(1H)-one]
IC50 [1]: 40 to 80 nM

IC50 [2, 3]: > 20000 nM
IC50 [2, 7]: 9600 nM
IC50 [2, 4]: 9600 nM
IC50 [2, 5]: > 20000 nM
IC50 [2, 6]: > 20000 nM
Structure (SMILES): Cc1[nH]c2c(c(=O)c1-c1ccc(Oc3ccc(C(=O)O)cc3)nc1)CCCC2 [JAG039, 4-((5-(2-methyl-4-oxo-1,4,5,6,7,8-hexahydroquinolin-3-yl)pyridin-2-yl)oxy)benzoic acid]

Structure (SMILES): Cc1[nH]c2c(c(=O)c1-c1ccc(Oc3ccc(F)c(Cl)c3)cc1)CCCC2 [AS021/ JAG145, 3-[4-(3-chloro-4-fluorophenoxy)phenyl]-2-methyl-5,6,7,8-tetrahydro-1H-quinolin-4-one]
IC50 [1]: 80 nM

IC50 [2, 3]: 10 nM
IC50 [2, 4]: 30 nM
IC50 [2, 5]: 70 nM
IC50 [2, 6]: 80 nM
Structure (SMILES): Cc1[nH]c2ccccc2c(=O)c1-c1ccc(Oc2ccccc2)cc1 [MJM129, 2-methyl-3-(4-phenoxyphenyl)quinolin-4(1H)-one]

Structure (SMILES): Cc1[nH]c2c(c(=O)c1-c1ccc(Oc3ccc(OC(F)(F)F)cc3)cc1)CCC(C)C2 (centres unmarked) [JAG107, 3(4-(4-Trifluoromethoxyphenoxy)phenyl)-2,7-dimethyl-5,6,7,8-tetrahydroquinolin-4(1H)-one]
IC50 [1]: 1000 nM

Structure (SMILES): CCC1CCc2c([nH]c(C)c(-c3ccc(Oc4ccc(OC(F)(F)F)cc4)cc3)c2=O)C1 (centres unmarked) [JAG121, 7-Ethyl-2-methyl-3(4-(4-trifluoromethoxyphenoxy)phenyl)-5,6,7,8-tetrahydroquinolin-4(1H)-one]
IC50 [1]: 100 nM

Structure (SMILES): Cc1[nH]c2c(c(=O)c1-c1ccc(Oc3cc(Cl)cc(Cl)c3)cc1)CCCC2 [AS022, 3-[4-(3,5-dichlorophenoxy)phenyl]-2-methyl-5,6,7,8-tetrahydro-1H-quinolin-4(1H)-one]
IC50 [1]: 20 to 40 nM

Structure (SMILES): O=C(O)c1[nH]c2c(c(=O)c1-c1ccc(Oc3ccc(OC(F)(F)F)cc3)cc1)CCCC2 [JAG091, 3(4-(4-Trifluoromethoxyphenoxy)phenyl)-2-(carboxylate)-5,6,7,8-tetrahydroquinolin-4(1H)-one]
IC50 [1]: > 1000 nM

Structure (SMILES): Cc1[nH]c2c(c(=O)c1-c1ccc(Oc3cccc(OC(F)(F)F)c3)cc1)CCCC2 [AS006/ JAG143, 2-methyl-3-(4 (3-(trifluoromethoxy)phenoxy)phenyl)-5,6,7,8-tetrahydroquinolin-4(1H)-one]
IC50 [1]: 60 to 80 nM

IC50 [2, 3]: 6750 nM
IC50 [2, 4]: 880 nM
IC50 [2, 5]: 4480 nM
IC50 [2, 6]: 5360 nM
Structure (SMILES): CCn1c(C)c(-c2ccc(Oc3ccccc3)cc2)c(=O)c2ccccc21 [JM10, 1-ethyl-2-methyl-3-(4-phenoxyphenyl)quinolin-4(1H)-one]

Structure (SMILES): Cc1[nH]c2c(c(=O)c1-c1ccc(Oc3cc(Cl)nc(Cl)c3)cc1)CCCC2 [AS034/ JAG148, 3-{4-[(2,6-dichloropyridin-4-yl)oxy]phenyl}-2-methyl-5,6,7,8-tetrahydro-1H-quinolin-4-one]
IC50 [1]: 100 to 500 nM

IC50 [2, 7]: 6720 nM
Structure (SMILES): Cc1[nH]c2c(c(=O)c1-c1ccc(Oc3ccc(C(=O)O)cc3)cc1)CCCC2 [JAG046, 4-(4-(2-methyl-4-oxo-1,4,5,6,7,8-hexahydroquinolin-3-yl)phenoxy)benzoic acid]
